The values below come from ChEMBL document CHEMBL4130619, “Structure-Based Virtual Screening for the Discovery of Novel Inhibitors of New Delhi Metallo-β-lactamase-1” (ACS Med Chem Lett, 2018).

≈ marks a conversion by molar mass, not a printed value.

The subject of assay [1] is Escherichia coli. Put plainly: Antibacterial activity in Escherichia coli clinical isolates endogenously expressing NDM1 incubated at 37 degC for 18 hrs by spectrophotometry. The class given is functional.
For assay [2], the system named is Escherichia coli. The assay is described as follows: Antibacterial activity in Escherichia coli BL21 (DE3) expressing pET-24a-blaNDM-1 incubated at 37 degC for 18 hrs by spectrophotometry. The class given is functional.
In assay [3] the test system is Bacteria. Put plainly: Competitive inhibition of bacterial NDM1 expressed in Escherichia coli JM109 (DE3) at 200 uM pre-incubated for 10 mins before nitrocefin substrate addition by spectrophotometry.
Assay [4] in a line: Competitive inhibition of bacterial NDM1 expressed in Escherichia coli JM109 (DE3) pre-incubated for 10 mins before nitrocefin substrate addition by spectrophotometry. On the set-up: species or system Bacteria.
Assay [5] deals with Bacteria. Put plainly: Inhibition of bacterial NDM1 expressed in Escherichia coli BL21 (DE3) expressing pET-24a-blaNDM-1 assessed as potentiation of meropenem-induced antibacterial activity by measuring combination MIC at 64 ug/ml incubated at 37 degC for 18 hrs by spectrophotometry based checkerboard microdilution assay. Background: Broth dilution looks for growth in wells or tubes with falling amounts of substance.

The subject of assay [6] is Bacteria. The assay is described as follows: Inhibition of bacterial NDM1 expressed in Escherichia coli BL21 (DE3) expressing pET-24a-blaNDM-1 assessed as potentiation of cefotaxime-induced antibacterial activity by measuring fractional inhibitory concentration index at 0.25 ug/ml incubated at 37 degC for 18 hrs by spectrophotometry based checkerboard microdilution assay.

For assay [7], the system named is Bacteria. The assay is described as follows: Inhibition of bacterial NDM1 expressed in Escherichia coli BL21 (DE3) expressing pET-24a-blaNDM-1 assessed as potentiation of meropenem-induced antibacterial activity by measuring fractional inhibitory concentration index at 0.5 ug/ml incubated at 37 degC for 18 hrs by spectrophotometry based checkerboard microdilution assay.

Assay [8] concerns Bacteria. The assay is described as follows: Inhibition of bacterial NDM1 expressed in Escherichia coli BL21 (DE3) expressing pET-24a-blaNDM-1 assessed as potentiation of cefazolin-induced antibacterial activity by measuring fractional inhibitory concentration index at 0.25 ug/ml incubated at 37 degC for 18 hrs by spectrophotometry based checkerboard microdilution assay.
Assay [9] has as its system Bacteria. The assay is described as follows: Inhibition of bacterial NDM1 expressed in Escherichia coli BL21 (DE3) expressing pET-24a-blaNDM-1 assessed as potentiation of meropenem-induced antibacterial activity by measuring reduction in meropenem MIC incubated at 37 degC for 18 hrs by spectrophotometry based checkerboard microdilution assay.
For assay [10], the target named is Beta-lactamase NDM-1 (Escherichia coli) (UniProt E5KIY2). The assay is described as follows: Inhibition of NDM1 in Escherichia coli clinical isolates assessed as potentiation of meropenem -induced antibacterial activity by measuring combination MIC at 32 ug/ml incubated at 37 degC for 18 hrs by spectrophotometry based checkerboard microdilution assay.
The target is the same in assay [11]. Put plainly: Inhibition of NDM1 in Escherichia coli clinical isolates assessed as potentiation of meropenem -induced antibacterial activity by measuring fractional inhibitory concentration index at 32 ug/ml incubated at 37 degC for 18 hrs by spectrophotometry based checkerboard microdilution assay.
Assay [12] has the same target. The assay is described as follows: Inhibition of NDM1 in Escherichia coli clinical isolates assessed as potentiation of meropenem -induced antibacterial activity by measuring fractional inhibitory concentration index at 64 ug/ml incubated at 37 degC for 18 hrs by spectrophotometry based checkerboard microdilution assay.
The target is the same in assay [13]. Put plainly: Inhibition of NDM1 in Escherichia coli clinical isolates assessed as potentiation of cefotaxime-induced antibacterial activity by measuring combination MIC at >256 ug/ml incubated at 37 degC for 18 hrs by spectrophotometry based checkerboard microdilution assay.
Assay [14] shares this target. Put plainly: Inhibition of NDM1 in Escherichia coli clinical isolates assessed as potentiation of cefazolin-induced antibacterial activity by measuring fractional inhibitory concentration index at >256 ug/ml incubated at 37 degC for 18 hrs by spectrophotometry based checkerboard microdilution assay.
Assay [15] concerns Bacteria. The assay is described as follows: Inhibition of bacterial NDM1 expressed in Escherichia coli BL21 (DE3) expressing pET-24a-blaNDM-1 assessed as potentiation of cefazolin-induced antibacterial activity by measuring combination MIC at 0.25 ug/ml incubated at 37 degC for 18 hrs by spectrophotometry based checkerboard microdilution assay.
The test system of assay [16] is Bacteria. The assay is described as follows: Inhibition of bacterial NDM1 expressed in Escherichia coli BL21 (DE3) expressing pET-24a-blaNDM-1 assessed as potentiation of cefotaxime-induced antibacterial activity by measuring combination MIC at 0.25 ug/ml incubated at 37 degC for 18 hrs by spectrophotometry based checkerboard microdilution assay.
For assay [17], the system named is Bacteria. The assay is described as follows: Inhibition of bacterial NDM1 expressed in Escherichia coli BL21 (DE3) expressing pET-24a-blaNDM-1 assessed as potentiation of meropenem-induced antibacterial activity by measuring combination MIC at 0.5 ug/ml incubated at 37 degC for 18 hrs by spectrophotometry based checkerboard microdilution assay.
The subject of assay [18] is Bacteria. Put plainly: Inhibition of bacterial NDM1 expressed in Escherichia coli BL21 (DE3) expressing pET-24a-blaNDM-1 assessed as potentiation of meropenem-induced antibacterial activity by measuring fractional inhibitory concentration index at 64 ug/ml incubated at 37 degC for 18 hrs by spectrophotometry based checkerboard microdilution assay.
Assay [19] concerns the target Beta-lactamase NDM-1 (Escherichia coli) (UniProt E5KIY2). Put plainly: Inhibition of NDM1 in Escherichia coli clinical isolates assessed as potentiation of meropenem-induced antibacterial activity by measuring reduction in meropenem MIC incubated at 37 degC for 18 hrs by spectrophotometry based checkerboard microdilution assay.
For assay [20] the target is unchanged. Put plainly: Inhibition of NDM1 in Escherichia coli clinical isolates assessed as potentiation of meropenem -induced antibacterial activity by measuring combination MIC at 64 ug/ml incubated at 37 degC for 18 hrs by spectrophotometry based checkerboard microdilution assay.
In assay [21] the test system is Bacteria. Put plainly: Inhibition of bacterial NDM1 expressed in Escherichia coli BL21 (DE3) expressing pET-24a-blaNDM-1 assessed as potentiation of ampicillin-induced antibacterial activity by measuring combination MIC at 0.25 ug/ml incubated at 37 degC for 18 hrs by spectrophotometry based checkerboard microdilution assay.
Assay [22] deals with Bacteria. Put plainly: Inhibition of bacterial NDM1 expressed in Escherichia coli BL21 (DE3) expressing pET-24a-blaNDM-1 assessed as potentiation of ampicillin-induced antibacterial activity by measuring fractional inhibitory concentration index at 0.25 ug/ml incubated at 37 degC for 18 hrs by spectrophotometry based checkerboard microdilution assay.
Assay [23] concerns the target Beta-lactamase NDM-1 (Escherichia coli) (UniProt E5KIY2). Put plainly: Inhibition of NDM1 in Escherichia coli clinical isolates assessed as potentiation of cefazolin-induced antibacterial activity by measuring combination MIC at >256 ug/ml incubated at 37 degC for 18 hrs by spectrophotometry based checkerboard microdilution assay.
For assay [24] the target is unchanged. Put plainly: Inhibition of NDM1 in Escherichia coli clinical isolates assessed as potentiation of cefotaxime-induced antibacterial activity by measuring fractional inhibitory concentration index at >256 ug/ml incubated at 37 degC for 18 hrs by spectrophotometry based checkerboard microdilution assay.

On to `CO/N=C(\C(=O)N[C@@H]1C(=O)N2C(C(=O)O)=C(COC(C)=O)CS[C@H]12)c1csc(N)n1` [CEFOTAXIME], for which the values for the MIC against Escherichia coli [1] and with Escherichia coli [2] were 1020 µg/mL (≈ 2250 µM) and 8 µg/mL (≈ 17.6 µM), respectively.
Compound `Nc1nnnn1NCc1cccc(Cl)c1Cl` displayed an inhibition in the assay with Bacteria [3] above 50%. The compound also yielded a Ki in [4] of 67 µM.
For `C[C@@H](O)[C@H]1C(=O)N2C(C(=O)O)=C(S[C@@H]3CN[C@H](C(=O)N(C)C)C3)[C@H](C)[C@H]12` [MEROPENEM], the MIC amounted to 128 µg/mL (≈ 334 µM) against Escherichia coli [1] and 1 µg/mL (≈ 2.61 µM) against Escherichia coli [2].
On to `Sc1nncn1NCc1cccc(Br)c1`, for which the MIC with Bacteria [5] turned out to be 0.25 µg/mL; in assay [10] it was 32 µg/mL; in assay [13], 1020 µg/mL; in the assay with Bacteria [15], 32 µg/mL; in the assay on Bacteria [16] it was 4 µg/mL; in the assay on Bacteria [17], 0.5 µg/mL. For the same compound, the MIC in assay [20] is 64 µg/mL; with Bacteria [21], 1020 µg/mL; in [23] it was 2050 µg/mL. For the same compound, the fractional inhibitory concentration index (FICI) in the assay with Bacteria [6] was below 0.501; in the assay on Bacteria [7], below 0.501; with Bacteria [8], below 0.501; in assay [11], below 0.313; in assay [12], below 0.501; in assay [14], above 1. The fractional inhibitory concentration index (FICI) in the assay with Bacteria [18] is below 0.375; in the assay with Bacteria [22], below 0.501; in [24] it was above 1. Besides, the fold change (FC) (in the assay on Bacteria [9]; in [19]) was 4 each time. In addition, in the assay with Bacteria [3], the inhibition is above 50%. Besides, in assay [4], affinity was put at a Ki of 1 µM.
Consider `O=C(O)CC(Sc1c[nH]c2ccccc12)C(=O)O` (stereo not drawn), for which the inhibition in the assay on Bacteria [3] is above 50%. For the same compound, in assay [4], the Ki came to 68 µM.
`Nc1ncnc2c1nc(S(=O)(=O)O)n2Cc1ccccc1`: the inhibition in the assay with Bacteria [3] was above 50%. The Ki in assay [4] turned out to be 65 µM.
Take `CC1(C)S[C@@H]2[C@H](NC(=O)[C@H](N)c3ccccc3)C(=O)N2[C@H]1C(=O)O` [AMPICILLIN]: the MIC was above 32800 µg/mL against Escherichia coli [1] and 1020 to 2050 µg/mL (≈ 2930 to 5860 µM) in the assay with Escherichia coli [2].
`O=C(O)CN1C(=O)S/C(=C\c2ccccc2Br)C1=O` displayed an inhibition with Bacteria [3] above 50%. For the same compound, in assay [4], the Ki was 76 µM.
As for `O=C(CS(=O)(=O)c1ccccc1)NC1CCCCC1`, in the assay on Bacteria [3], the inhibition is above 50%. In addition, in assay [4], the inhibition constant Ki was 52 µM.
Taken in the same sequence, the figures for `Cc1ccc(-n2nnnc2CS(=O)(=O)c2ccccc2)cc1` were above 50% and 71 µM.
Consider `Cc1nnc(SCC2=C(C(=O)O)N3C(=O)[C@@H](NC(=O)Cn4cnnn4)[C@H]3SC2)s1` [CEFAZOLIN], for which the MIC in the assay with Escherichia coli [2] was at least 32 µg/mL.
For the compound `Cn1c(SCC(=O)O)nnc1-c1ccc(N)cc1`, the inhibition with Bacteria [3] was above 50%. In [4], this compound gave a Ki of 85 µM.

For orientation: inhibition means the share of the control response that was lost under treatment. The low end stands for a weak effect, the high end for a strong effect. For orientation: Ki means the equilibrium dissociation constant of an inhibitor or competing ligand from its target. A higher Ki goes with a looser hold on the target.
